Data reported in patent US10160747B2, “Compounds and methods for kinase modulation, and indications therefor” (Plexxikon Inc., priority 2016, dated 2018).

Columns and labels:
[1] = tested on: MOLM-14 D835Y (endogenous FLT3 ITD and transfected FLT3 D835Y); test: MOLM-14 D835Y cell proliferation assay (CellTiter-Glo); format: cell-based; conditions: Homo sapiens, MOLM-14, 72 h; 3 d growth, GMean
Procedure, shortened: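 Three-day proliferation at 37 °C/5% CO2 of FLT3-ITD MOLM-14 lines with D835Y or F691L mutation, seeded 1×10^4 per well. Compounds at eight points, top 1 μM final, 0.2% DMSO. ATP luminescence (CellTiter-Glo) gives IC50.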

FLT3-D835Y = biological target: T1, FLT3-D835Y (Homo sapiens, UniProt P36888, D835Y); test: FLT3-D835Y recombinant enzyme kinase assay (AlphaScreen); format: biochemical; conditions: 8 pt, GMean
T1 construct: purchased Invitrogen PV3967
T1 sequence (P36888 27-993 D835Y): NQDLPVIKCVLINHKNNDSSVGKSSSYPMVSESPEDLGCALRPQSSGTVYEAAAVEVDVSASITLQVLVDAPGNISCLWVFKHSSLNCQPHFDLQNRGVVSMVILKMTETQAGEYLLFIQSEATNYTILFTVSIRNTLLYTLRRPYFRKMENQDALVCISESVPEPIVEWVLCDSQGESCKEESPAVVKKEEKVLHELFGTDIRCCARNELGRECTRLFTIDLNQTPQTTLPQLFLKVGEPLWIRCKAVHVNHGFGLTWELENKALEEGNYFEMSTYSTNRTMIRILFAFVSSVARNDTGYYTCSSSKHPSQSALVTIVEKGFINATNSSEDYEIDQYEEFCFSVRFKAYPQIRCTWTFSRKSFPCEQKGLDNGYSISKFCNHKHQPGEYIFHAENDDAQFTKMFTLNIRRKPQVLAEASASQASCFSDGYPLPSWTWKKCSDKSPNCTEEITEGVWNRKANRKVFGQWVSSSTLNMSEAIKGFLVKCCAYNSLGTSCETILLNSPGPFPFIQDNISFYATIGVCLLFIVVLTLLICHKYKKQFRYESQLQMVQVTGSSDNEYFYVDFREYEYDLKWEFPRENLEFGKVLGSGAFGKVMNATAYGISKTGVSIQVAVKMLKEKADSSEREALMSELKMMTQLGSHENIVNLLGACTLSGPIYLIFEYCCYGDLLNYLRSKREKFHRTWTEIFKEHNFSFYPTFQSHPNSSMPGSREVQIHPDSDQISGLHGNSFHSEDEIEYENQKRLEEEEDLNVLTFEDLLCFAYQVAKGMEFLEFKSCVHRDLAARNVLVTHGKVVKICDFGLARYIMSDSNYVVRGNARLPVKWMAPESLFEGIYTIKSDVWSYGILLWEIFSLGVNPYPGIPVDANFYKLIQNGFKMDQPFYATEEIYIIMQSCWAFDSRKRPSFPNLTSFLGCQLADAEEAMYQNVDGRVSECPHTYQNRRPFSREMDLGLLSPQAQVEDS
Procedure, shortened: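 Enzyme plus biotinylated poly(Glu4-Tyr) substrate (30 nM) mixed with compound, then ATP added. Donor beads went in for 20 min at room temperature, then PY20 acceptor beads for 60 min. AlphaScreen read; ATP was 10 μM for FLT3-ITD/D835Y and 100 μM for c-KIT.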

Row | Compound | IC50 [1] | IC50 (FLT3-D835Y)
1 | COc1ncc(NC(=O)Cc2ccc(-c3cnc4[nH]nc(C5CC5)c4c3)cc2F)cc1C(F)(F)F [Compound P-0262, 2-[4-(3-cyclopropyl-1H-pyrazolo[3,4-b]pyridin-5-yl)-2-fluoro-phenyl]-N-[6-methoxy-5-(trifluoromethyl)-3-pyridyl]acetamide] | 0.0001 to 10 µM | 0.0001 to 10 µM
2 | COc1ncc(NC(=O)Cc2ccc(-c3cnc4[nH]nc(C5CC5)c4c3)cc2)cc1C(F)(F)F [Compound P-0263, 2-[4-(3-cyclopropyl-1H-pyrazolo[3,4-b]pyridin-5-yl)phenyl]-N-[6-methoxy-5-(trifluoromethyl)-3-pyridyl]acetamide] | 0.0001 to 10 µM | 0.0001 to 10 µM
3 | COCCn1cc(Nc2ncc(-c3ccc(CC(=O)Nc4cnc(OC)c(C(F)(F)F)c4)c(F)c3)cn2)cn1 [Compound P-0265, 2-[2-fluoro-4-[2-[[1-(2-methoxyethyl)pyrazol-4-yl]amino]pyrimidin-5-yl]phenyl]-N-[6-methoxy-5-(trifluoromethyl)-3-pyridyl]acetamide] | 0.0001 to 10 µM | 0.0001 to 10 µM
4 | COCCn1cc(Nc2ncc(-c3ccc(CC(=O)Nc4cnc(Cl)c(C(F)(F)F)c4)c(F)c3)cn2)cn1 [Compound P-0266, N-[6-chloro-5-(trifluoromethyl)-3-pyridyl]-2-[2-fluoro-4-[2-[[1-(2-methoxyethyl)pyrazol-4-yl]amino]pyrimidin-5-yl]phenyl]acetamide] | 0.0001 to 10 µM | 0.0001 to 10 µM
5 | COCCn1cc(Nc2ncc(-c3ccc(CC(=O)Nc4cncc(C(F)(F)F)c4)c(F)c3)cn2)cn1 [Compound P-0267, 2-[2-fluoro-4-[2-[[1-(2-methoxyethyl)pyrazol-4-yl]amino]pyrimidin-5-yl]phenyl]-N-[5-(trifluoromethyl)-3-pyridyl]acetamide] | 0.0001 to 10 µM | 0.0001 to 10 µM
6 | COCCn1cc(Nc2ncc(-c3ccc(CC(=O)Nc4ccc(C(F)(F)F)nc4)c(F)c3)cn2)cn1 [Compound P-0268, 2-[2-fluoro-4-[2-[[1-(2-methoxyethyl)pyrazol-4-yl]amino]pyrimidin-5-yl]phenyl]-N-[6-(trifluoromethyl)-3-pyridyl]acetamide] | 0.0001 to 10 µM | 0.0001 to 10 µM
7 | COCCn1cc(Nc2ncc(-c3ccc(CC(=O)Nc4ccc(C(F)(F)F)cn4)c(F)c3)cn2)cn1 [Compound P-0269, 2-[2-fluoro-4-[2-[[1-(2-methoxyethyl)pyrazol-4-yl]amino]pyrimidin-5-yl]phenyl]-N-[5-(trifluoromethyl)-2-pyridyl]acetamide] | 0.0001 to 10 µM | 0.0001 to 10 µM
8 | COCCn1cc(Nc2ncc(-c3ccc(CC(=O)Nc4cc(C(F)(F)F)ccn4)c(F)c3)cn2)cn1 [Compound P-0270, 2-[2-fluoro-4-[2-[[1-(2-methoxyethyl)pyrazol-4-yl]amino]pyrimidin-5-yl]phenyl]-N-[4-(trifluoromethyl)-2-pyridyl]acetamide] | 0.0001 to 10 µM | 0.0001 to 10 µM
9 | COCCn1cc(Nc2ncc(-c3ccc(CC(=O)Nc4cnc(OC)c(C(F)(F)F)c4)cc3)cn2)cn1 [Compound P-0271, 2-[4-[2-[[1-(2-methoxyethyl)pyrazol-4-yl]amino]pyrimidin-5-yl]phenyl]-N-[6-methoxy-5-(trifluoromethyl)-3-pyridyl]acetamide] | 0.0001 to 10 µM | 0.0001 to 10 µM
10 | COCCn1cc(Nc2ncc(-c3ccc(CC(=O)Nc4ccc(C(F)(F)F)nc4)cc3)cn2)cn1 [Compound P-0273, 2-[4-[2-[[1-(2-methoxyethyl)pyrazol-4-yl]amino]pyrimidin-5-yl]phenyl]-N-[6-(trifluoromethyl)-3-pyridyl]acetamide] | 0.0001 to 10 µM | 0.0001 to 10 µM
11 | COCCn1cc(Nc2ncc(-c3ccc(CC(=O)Nc4ccc(C(F)(F)F)cn4)cc3)cn2)cn1 [Compound P-0274, 2-[4-[2-[[1-(2-methoxyethyl)pyrazol-4-yl]amino]pyrimidin-5-yl]phenyl]-N-[5-(trifluoromethyl)-2-pyridyl]acetamide] | 0.0001 to 10 µM | 0.0001 to 10 µM
